Our source for the EC50 values is patent US10584115B2, “Substituted pyridine and pyrazine BMI-1 inhibitors” (PTC Therapeutics, Inc., priority 2013, dated 2020).

Structures are written as SMILES.

One test relates to Bmi-1 protein. Briefly: Sandwich ELISA Assay (Bmi-1 protein level in HT-1080 cells after compound treatment). It is filed as cell-based. The conditions noted are these: Table 1, Bmi-1 sandwich ELISA, read-out: ELISA EC50 value for Bmi-1 protein. The procedure, abridged: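 Sandwich ELISA quantified Bmi-1 protein against recombinant standard (125–8000 pg/mL), with lysates captured overnight at 4 °C and signal by HRP/TMB at 450 nm (570 nm reference). Lysates came from HT-1080 cells incubated 40–48 h with test compounds in 0.5% DMSO.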
(In an ELISA, binding on a coated surface is turned into a signal by an enzyme label.)
By EC50 is commonly meant the concentration needed to bring the measured effect to its halfway point. As to `COc1ccc2nc(C)c(-c3cc(C#N)cc(Nc4ccc(OC(F)F)cc4)n3)n2c1` [compound 677, 2-{[4-(difluoromethoxy)phenyl]amino}-6-(6-methoxy-2-methylimidazo[1,2-a]pyridin-3-yl)pyridine-4-carbonitrile], the EC50 was 100 to 3000 nM.

As to `Fc1cc(Nc2cncc(-c3c(C(F)(F)F)nc4ccccn34)n2)ccc1Br` [Cpd 30, N-(4-bromo-3-fluorophenyl)-6-[2-(trifluoromethyl)imidazo[1,2-a]pyridin-3-yl]pyrazin-2-amine], the EC50 lay within 1 to 10 nM.

Consider `Cc1nc2cc(F)c(F)cc2n1-c1cc(C#N)cc(Nc2ccc(C(F)(F)F)cc2)n1` [compound 241, 2-(5,6-difluoro-2-methyl-1H-benzimidazol-1-yl)-6-{[4-(trifluoromethyl)phenyl]amino}pyridine-4-carbonitrile], for which the EC50 fell in the range of 10 to 100 nM.

As to `CC(=O)O[C@@H](C)c1nc2ccccc2n1-c1cncc(Nc2ccc(C(F)(F)F)cc2)n1` [compound 78, (1S)-1-[1-(6-{[4-(trifluoromethyl)phenyl]amino}pyrazin-2-yl)-1H-benzimidazol-2-yl]ethyl acetate], the EC50 lay in the range of 100 to 3000 nM.

Consider `Cc1nc2cc(F)c(F)cc2n1-c1cccc(Nc2ccc(OC(F)(F)F)cc2)n1` [compound 603, 6-(5,6-difluoro-2-methyl-1H-benzimidazol-1-yl)-N-[4-(trifluoromethoxy)phenyl]pyridin-2-amine], for which the EC50 was in the range of 100 to 3000 nM.

With `COc1ccc2nc(C(F)(F)F)c(-c3cncc(Nc4ccc(F)cc4)n3)n2c1` [Cpd 681, N-(4-fluorophenyl)-6-[6-methoxy-2-(trifluoromethyl)imidazo[1,2-a]pyridin-3-yl]pyrazin-2-amine], the EC50 lay in the range of 100 to 3000 nM.

As to `COCCNc1cc(Nc2ccc(C(F)(F)F)cc2)nc(-c2c(C(F)(F)F)nc3ccccn23)c1` [compound 161, N^4-(2-methoxyethyl)-6-[2-(trifluoromethyl)imidazo[1,2-a]pyridin-3-yl]-N^2-[4-(trifluoromethyl)phenyl]pyridine-2,4-diamine], the EC50 lay within 10 to 100 nM.

Regarding `COc1ccc(Nc2cncc(-c3c(C(F)(F)F)nc4sccn34)n2)cc1` [compound 119, N-(4-methoxyphenyl)-6-[6-(trifluoromethyl)imidazo[2,1-b][1,3]thiazol-5-yl]pyrazin-2-amine], the EC50 was under 1 nM.

Take `Cc1nc2cc(F)c(F)cc2n1-c1cncc(Nc2ccc(Cl)cc2)n1` [compound 575, N-(4-chlorophenyl)-6-(5,6-difluoro-2-methyl-1H-benzimidazol-1-yl)pyrazin-2-amine]: the EC50 was 10 to 100 nM.

With `Cc1nc2ccccc2n1-c1cc(C#N)cc(Nc2ccc(OC(F)(F)F)cc2)n1` [Cpd 136, 2-(2-methyl-1H-benzimidazol-1-yl)-6-{[4-(trifluoromethoxy)phenyl]amino}pyridine-4-carbonitrile], the EC50 fell in the range of 10 to 100 nM.

Consider `N#Cc1cc(Nc2ccc(OC(F)F)cc2)nc(-c2c(CO)nc3ccc(F)cn23)c1` [compound 393, 2-{[4-(difluoromethoxy)phenyl]amino}-6-[6-fluoro-2-(hydroxymethyl)imidazo[1,2-a]pyridin-3-yl]pyridine-4-carbonitrile], for which the EC50 was 10 to 100 nM.

Take `N#Cc1cc(Nc2ccc(C(F)(F)F)nc2)nc(-c2c(CO)nc3ccc(F)cn23)c1` [compound 445, 2-[6-fluoro-2-(hydroxymethyl)imidazo[1,2-a]pyridin-3-yl]-6-{[6-(trifluoromethyl)pyridin-3-yl]amino}pyridine-4-carbonitrile]: the EC50 was in the range of 10 to 100 nM.

Turning to `Cc1cc2ccccc2n1-c1cncc(Nc2ccc(C(F)(F)F)cc2)n1` [compound 162], the EC50 is 100 to 3000 nM.

Take `COc1ccc2nc(C)c(-c3cc(C#N)cc(Nc4ccc(F)cc4)n3)n2c1` [compound 674, 2-[(4-fluorophenyl)amino]-6-(6-methoxy-2-methylimidazo[1,2-a]pyridin-3-yl)pyridine-4-carbonitrile]: the EC50 lay in the range of 100 to 3000 nM.

`COc1ccc2nc(C(F)(F)F)c(-c3cncc(Nc4ccc(OC(F)F)cc4)n3)n2c1` [Cpd 48, N-[4-(difluoromethoxy)phenyl]-6-[6-methoxy-2-(trifluoromethyl)imidazo[1,2-a]pyridin-3-yl]pyrazin-2-amine]: the EC50 lay in the range of 1 to 10 nM.

Turning to `CCc1nc2ccccc2n1-c1cncc(Nc2ccc(C(F)(F)F)cc2)n1` [compound 51, 6-(2-ethyl-1H-benzimidazol-1-yl)-N-[4-(trifluoromethyl)phenyl]pyrazin-2-amine], the 50% effective concentration (EC50) lay in the range of 1 to 10 nM.

On to `CCc1nc2ncc(Cl)cc2n1-c1cc(C#N)cc(Nc2ccc(C(F)(F)F)cc2)n1` [compound 450, 2-(6-chloro-2-ethyl-1H-imidazo[4,5-b]pyridin-1-yl)-6-{[4-(trifluoromethyl)phenyl]amino}pyridine-4-carbonitrile], for which the EC50 was 10 to 100 nM.

For the molecule `Cc1nc2ccccc2n1-c1cncc(Nc2ccc(C(F)(F)F)c(C#N)c2)n1` [compound 517, 5-{[6-(2-methyl-1H-benzimidazol-1-yl)pyrazin-2-yl]amino}-2-(trifluoromethyl)benzonitrile], the EC50 is 100 to 3000 nM.

On to `COC(=O)c1ccc(Nc2cncc(-n3c(C)nc4ccccc43)n2)cc1` [compound 133, methyl 4-{[6-(2-methyl-1H-benzimidazol-1-yl)pyrazin-2-yl]amino}benzoate], for which the half-maximal effective concentration (EC50) was in the range of 10 to 100 nM.

As for `CCc1nc2cc(F)c(F)cc2n1-c1cc(N)cc(Nc2ccc(C(F)(F)F)cc2)n1` [compound 503, 6-(2-ethyl-5,6-difluoro-1H-benzimidazol-1-yl)-N^2-[4-(trifluoromethyl)phenyl]pyridine-2,4-diamine], the EC50 lay within 10 to 100 nM.

With `CCc1nn2ccccc2c1-c1cncc(Nc2ccc(OC(F)F)cc2)n1` [compound 521, N-[4-(difluoromethoxy)phenyl]-6-(2-ethylpyrazolo[1,5-a]pyridin-3-yl)pyrazin-2-amine], the EC50 lay in the range of 1 to 10 nM.

Turning to `OCc1nc2ccccn2c1-c1cncc(Nc2ccc(OC(F)F)cc2)n1` [compound 215, [3-(6-{[4-(difluoromethoxy)phenyl]amino}pyrazin-2-yl)imidazo[1,2-a]pyridin-2-yl]methanol], the EC50 fell in the range of 1 to 10 nM.

As to `CNc1nc2ccccc2n1-c1cncc(Nc2ccc(C(F)(F)F)cc2)n1` [compound 61, N-methyl-1-(6-{[4-(trifluoromethyl)phenyl]amino}pyrazin-2-yl)-1H-benzimidazol-2-amine], the EC50 lay within 1 to 10 nM.

For `Cc1ccc(Nc2cc(C#N)cc(-n3c(C)nc4ccccc43)n2)cc1` [Cpd 634, 2-(2-methyl-1H-benzimidazol-1-yl)-6-[(4-methylphenyl)amino]pyridine-4-carbonitrile], the EC50 was in the range of 10 to 100 nM.

For `Cc1nc2c(F)cc(F)cc2n1-c1cncc(Nc2ccc(C(F)(F)F)cc2)n1` [compound 417, 6-(4,6-difluoro-2-methyl-1H-benzimidazol-1-yl)-N-[4-(trifluoromethyl)phenyl]pyrazin-2-amine], the EC50 lay within 10 to 100 nM.

Turning to `CCc1nc(C)c(-c2cncc(Nc3ccc(C(F)(F)F)cc3)n2)n1Cc1ccccc1` [compound 126], the EC50 was in the range of 100 to 3000 nM.

With `Fc1ccc2ncc(-c3cncc(Nc4ccc(C(F)(F)F)cc4)n3)n2c1` [compound 308, 6-(6-fluoroimidazo[1,2-a]pyridin-3-yl)-N-[4-(trifluoromethyl)phenyl]pyrazin-2-amine], the EC50 lay within 100 to 3000 nM.

As for `CNc1ccc2nc(C)n(-c3cncc(Nc4ccc(OC(F)(F)F)cc4)n3)c2c1` [compound 225, N,2-dimethyl-1-(6-{[4-(trifluoromethoxy)phenyl]amino}pyrazin-2-yl)-1H-benzimidazol-6-amine], the EC50 lay in the range of 100 to 3000 nM.

`COc1ccc(Nc2cncc(-c3c(C(F)(F)F)nc4ccc(OC)cn34)n2)cc1` [Cpd 47, N-(4-methoxyphenyl)-6-[6-methoxy-2-(trifluoromethyl)imidazo[1,2-a]pyridin-3-yl]pyrazin-2-amine]: the EC50 was 1 to 10 nM.

As for `Cc1nn2ccccc2c1-c1cc(C#N)cc(Nc2ccc(OC(F)F)c(F)c2)n1` [compound 513, 2-{[4-(difluoromethoxy)-3-fluorophenyl]amino}-6-(2-methylpyrazolo[1,5-a]pyridin-3-yl)pyridine-4-carbonitrile], the EC50 was 10 to 100 nM.

As to `N#Cc1cc(Nc2ccc(OC(F)(F)F)cc2)nc(-c2c(C(F)(F)F)nc3n2CCCC3)c1` [Cpd 238, 2-{[4-(trifluoromethoxy)phenyl]amino}-6-[2-(trifluoromethyl)-5,6,7,8-tetrahydroimidazo[1,2-a]pyridin-3-yl]pyridine-4-carbonitrile], the half-maximal effective concentration (EC50) lay in the range of 100 to 3000 nM.

With `Cc1nc2cc(F)c(F)cc2n1-c1cccc(Nc2ccc(OC(F)F)cc2)n1` [compound 602, N-[4-(difluoromethoxy)phenyl]-6-(5,6-difluoro-2-methyl-1H-benzimidazol-1-yl)pyridin-2-amine], the EC50 lay within 10 to 100 nM.

For the molecule `CCc1nc2ccccc2n1-c1cc(N)cc(Nc2ccc(C(F)(F)F)cc2)n1` [compound 510, 6-(2-ethyl-1H-benzimidazol-1-yl)-N^2-[4-(trifluoromethyl)phenyl]pyridine-2,4-diamine], the concentration giving a half-maximal response (EC50) fell in the range of 10 to 100 nM.

Staying with this test, now noted: read-out: ELISA EC50 value for Bmi-1 protein, Table 1, Bmi-1 sandwich ELISA.
`Cc1nc2ccccc2n1-c1cc(N)cc(Nc2ccc(C(F)(F)F)cc2)n1` [Cpd 492, 6-(2-methyl-1H-benzimidazol-1-yl)-N^2-[4-(trifluoromethyl)phenyl]pyridine-2,4-diamine]: the EC50 was 10 to 100 nM.

`Cc1nn2ccccc2c1-c1cncc(Nc2ccc(C(F)(F)F)cc2)n1` [compound 497, 6-(2-methylpyrazolo[1,5-a]pyridin-3-yl)-N-[4-(trifluoromethyl)phenyl]pyrazin-2-amine]: the EC50 lay within 1 to 10 nM.

In the case of `Cc1nn2ccccc2c1-c1cc(C#N)cc(Nc2ccc(C(F)(F)F)cc2)n1` [compound 511, 2-(2-methylpyrazolo[1,5-a]pyridin-3-yl)-6-{[4-(trifluoromethyl)phenyl]amino}pyridine-4-carbonitrile], the EC50 fell in the range of 10 to 100 nM.
